According to patent publication US11286263B2, “Macrocyclic fluorine substituted indole derivatives” (The Broad Institute, Inc., priority 2017, dated 2022):
“And” between values parts separate entries of the source, which are not always exact repeats. Equal values may be shown once. Read-outs that look alike come from different tables or passages of the source.

Tests used:
[1] = amine bond, Cs2CO3
AMO-1 = experiment: Antiproliferation assay AMO-1 (Assay 7); format: cell-based; settings: AMO-1 cells, CellTiter-Glo, single determinations, read-out: IC50 Antiproli AMO-1
Method: (§1) Assessment of the Anti-Proliferative Effect of Compounds in Different Cell Lines
(§2) The impact of compounds on the proliferation of different cell lines was assessed using the CellTiter-Glo® Luminescent Cell Viability reagent from Promega (G7573).
(§3) In parallel, cells were plated in a reference (day 0) plate for time zero determination.
(§4) Rim wells were excluded. The cells were incubated for 72 h hours in a humidified incubator at 37° C. The day 0 plate was measured by adding 30 μL/well of CTG solution (CellTiter-Glo® Luminescent Cell Viability reagent, Promega G7573) to time zero wells in the reference plate followed by a 10 minutes incubation and luminescence reading at 0.1 ms. using the PHERAstar FS microplate reader (BMG Labtech).
(§5) After 72 h incubation, the treated plates were measured in the same way as the day 0 plate mentioned above.

MCL-1 = MCL-1 (Homo sapiens (Human), UniProt Q07820, K194A/K197A/R201A); experiment: Protein-protein interaction assay MCL-1/Noxa BH3 peptide (MCL-1 assay), TR-FRET; format: binding; settings: MCL-1/Noxa BH3 peptide TR-FRET; median
MCL-1, sequence (Q07820 whole entry K194A/K197A/R201A, looked up): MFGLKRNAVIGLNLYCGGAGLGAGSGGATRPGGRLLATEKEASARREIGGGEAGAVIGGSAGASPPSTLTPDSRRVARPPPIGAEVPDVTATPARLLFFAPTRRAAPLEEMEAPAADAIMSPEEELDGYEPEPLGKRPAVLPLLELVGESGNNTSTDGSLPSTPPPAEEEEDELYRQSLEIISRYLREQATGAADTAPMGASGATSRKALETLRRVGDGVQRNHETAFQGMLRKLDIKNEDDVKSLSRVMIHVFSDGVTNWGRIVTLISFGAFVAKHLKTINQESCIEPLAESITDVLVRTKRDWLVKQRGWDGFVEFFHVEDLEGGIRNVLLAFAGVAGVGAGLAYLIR
Method: Protein-Protein Interaction Assay: MCL-1/Noxa BH3 Peptide (MCL-1 Assay)
The dose-dependent inhibition by the compounds described in this invention of the interaction between MCL-1 and the BH3 domain of Noxa (both human) was determined using a steady state binding competition assay with time-resolved fluorescence energy transfer (TR-FRET) readout. For that purpose MCL-1 (amino acids 173-321, N-terminal fused to Maltose Binding Protein (MBP) SEQ ID 1)) and a synthetic Noxa BH3-derived peptide of sequence Biotin-PEG2-PEG2-PAELEVE-Nva-ATQLRRFGDKLNFRQKLL-amide (SEQ ID 2) served as protein receptor and tracer ligand respectively. The MBP-MCL-1 was purchased from Beryllium (Bedford, Mass., USA). The expression and purification of this protein construct has been described elsewhere (DOI:10.1371/journal.pone.0125010). The Noxa BH3-derived peptide can be obtained from e.g. Biosyntan (Berlin, Germany).
In the assay 11 different concentrations of each compound (0.1 nM, 0.33 nM, 1.1 nM, 3.8 nM, 13 nM, 44 nM, 0.15 μM, 0.51 μM, 1.7 μM, 5.9 μM and 20 μM) were typically measured as duplicates in the same microtiter plate. For that, 100-fold concentrated DMSO solutions were prepared by serial dilutions (1:3.4) of a 2 mM stock solution in a clear, 384-well microtiter plate (Greiner Bio-One, Frickenhausen, Germany). From there, 50 nl were transferred in a dark test plate (Greiner Bio-One, Frickenhausen, Germany). The assay was initiated by addition of 2 μl of a 2,5-fold concentrated MBP-MCL-1 solution (usually for a 1 nM end concentration in 5 μl reaction volume) in aqueous assay buffer [50 mM Tris/HCl pH 7, 100 mM sodium chloride (NaCl), 50 mM potassium fluoride (KF), 0.005% Tween-20, 2 mM DTT, 0.1% bovine gamma globulin (BGG)] to the compounds in the assay plate. This was followed by a 10-minute incubation step at 22° C. for pre-equilibration of the putative complex between MBP-MCL-1 and the compounds. After that, 3 μl of a 1.67-fold concentrated solution (in assay buffer) consisting of Noxa BH3-derived peptide (1 nM end concentration) and TR-FRET detection reagents [1.67 nM anti-MBP-Eu cryptate and 1.67 nM streptavidin-XL665 (both from Cisbio Bioassays, Codolet, France)], were added.
The mixture was incubated in the dark for one hour at 22° C. and then overnight at 4° C. The formation of MCL-1/Noxa complexes was determined by measuring the resonance energy transfer of the anti-MBP-Eu-cryptate antibody to the streptavidin-XL665 present in the reaction. For that purpose, the fluorescence emission at 620 nm and 665 nm after excitation at 330-350 nm was measured in a TR-FRET measuring instrument, for instance a Rubystar or a Pherastar (both from BMG Lab Technologies, Offenburg, Germany) or a Viewlux (Perkin-Elmer). The ratio of the emission at 665 nm and at 622 nm was used as indicator of the amount of MCL-1/NOXA complexes present.
The resulting data (ratio) were normalized, taking 0% inhibition as the mean value of control measurements (usually 32 data points) where all reagents were included. In this case 50 nl DMSO were used instead of compounds. A 100% inhibition corresponded to the mean value of control measurements (usually 32 data points) where all reagents except MCL-1 were included. IC50 values were determined by regression analysis based on a 4 parameter equation (minimum, maximum, IC50, Hill; Y=Max+(Min−Max)/(1+(X/IC50)^Hill) using the Screener Software (Genedata).

SUDHL5 [2] = experiment: Antiproliferation assay SUDHL5 (Assay 7); format: cell-based; settings: SUDHL5 cells, CellTiter-Glo, median, read-out: IC50 Antiproli SUDHL5 [M] (median)
Method: as §1, §2, §3, §4, §5

SUDHL5 [3] = experiment: Induction of cytotoxicity, SUDHL5 (Assay 6); settings: read-out: IC50 Cytotox SUDHL5 [M] (median), SUDHL5 cells, 5 h, CellTiter-Glo
SUDHL10 [4] = experiment: Induction of caspase-3/7 activity, SUDHL10 (Assay 4); format: cell-based; settings: SUDHL10 cells
Method: (§6) Induction of Caspase-3/7 Activity upon Treatment of Cells with Selected Compounds
(§7) The BH3-domain of MCL-1 sequesters pro-apoptotic proteins, thereby inhibiting apoptosis. In contrast, MCL-1 inhibitors are expected to antagonize this effect leading to an increase in apoptosis, which can be determined by measuring the activity of caspase-3/7.
(§8) The activity of caspase-3/7 was determined in DLBCL (Diffuse large B-cell lymphoma) cell lines (SUDHL5 and SUDHL10) upon treatment with different compounds, using the Caspase-Glo® 3/7 reagent from Promega (G8092).
(§9) Rim wells were excluded. The cells were incubated for 3 h hours in a humidified incubator at 37° C.
(§10) For the evaluation of the results, the background measured with “medium-only” was subtracted from all other values. […] The Bella DRC Master Sheet was used to calculate EC50s, with fixed C0=1 and Cl=plateau/max induction for the reference compound.

SK-BR-3 = experiment: Antiproliferation assay SK-BR-3 (Assay 7); format: cell-based; settings: Homo sapiens, SK-BR-3, 72 h, SK-BR-3 cells, CellTiter-Glo, single determinations, read-out: IC50 Antiproli SK-BR-3
Method: as §1, §2, §3, §4, §5

A2780 = experiment: Antiproliferation assay A2780 (Assay 7); format: cell-based; settings: A2780 cells, CellTiter-Glo, single determinations, read-out: IC50 Antiproli A2780
Method: as §1, §2, §3, §4, §5

SUDHL5 [5] = experiment: Induction of caspase-3/7 activity, SUDHL5 (Assay 4); format: cell-based; settings: Homo sapiens, SU-DHL-5, 3 h, SUDHL5 cells, Caspase-Glo 3/7, median
Method: as §6, §7, §8, §9, §10

MV-4-11 = experiment: Antiproliferation assay MV-4-11 (Assay 7); format: cell-based; settings: MV-4-11 cells, CellTiter-Glo, single determinations, read-out: IC50 Antiproli MV-4-11
Method: as §1, §2, §3, §4, §5

SUDHL10 [6] = experiment: Induction of cytotoxicity, SUDHL10 (Assay 6); settings: read-out: IC50 Cytotox SUDHL10 [M] (median), SUDHL10 cells, 5 h, CellTiter-Glo
Method: In principle, compounds that induce apoptosis will concomitantly induce cell cytotoxicity. Therefore, cytotoxicity assays were run in parallel in SUDHL5 and SUDHL10 cells.
The different cell lines were plated in culture medium (RPMI 1640 [GIBCO #22400-089] supplemented with 10% Fetal Bovine Serum) at a density of 3,300 cells in 30 μl/well in a sterile, solid black, flat bottom, polystyrene, TC-treated 384-well microplate (Corning #3571) using Multidrop Combi Reagent Dispenser. As a control, medium without cells was also added to the plate. Cells were incubated in a humidified incubator at 37° C. overnight. On the next day, the cells were treated with compounds (stock solution, 10 mM in DMSO) using the HP D300 Digital Dispenser in a concentration range of 3.3×10e-5 M (33 μM) to 5×10e-9 M (5 nM) in a single-dot curve with at least 16 dilutions and a DMSO concentration of 0.33%. Rim wells were excluded. The cells were incubated for 5 h hours in a humidified incubator at 37° C. After this incubation, 30 μl of CellTiter-Glo® Luminescent Cell Viability reagent (Promega, G7573) was added to each well using the Multidrop Combi Reagent Dispenser, followed by 15 min incubation on a shaker at room temperature. Finally, luminescence was read at 0.1 ms, with a gain of 3000 using the PHERAstar FS microplate reader (BMG Labtech).
The Bella DRC Master Sheet was used to calculate IC50s, with fixed CI=0 and C0=1.

SUDHL10 [7] = experiment: Antiproliferation assay SUDHL10 (Assay 7); format: cell-based; settings: Homo sapiens, SU-DHL10; SUDHL10 cells, 72 h, CellTiter-Glo; median; read-out: IC50 Antiproli SUDHL10 [M] (median)
Method: as §1, §2, §3, §4, §5

HMC-1-8 = experiment: Antiproliferation assay HMC-1-8 (Assay 7); format: cell-based; settings: HMC-1-8 cells, 72 h, CellTiter-Glo; single determinations; read-out: IC50 Antiproli HMC-1-8
Method: as §1, §2, §3, §4, §5

[8] = Homo sapiens, SU-DHL10, 3 h, Caspase-Glo 3/7, median

Compound	IC50 (MCL-1) [nM]	IC50 (SUDHL5 [2]; Homo sapiens, SU-DHL-5, 72 h) [M]	EC50 (SUDHL10 [4]; [8]) [nM]	IC50 (A2780; Homo sapiens, A2780, 72 h) [nM]	EC50 (SUDHL5 [5]) [nM]	IC50 (SUDHL10 [7]) [M]	IC50 (AMO-1; Homo sapiens, AMO1, 72 h) [nM]	IC50 (SUDHL5 [3]; Homo sapiens, SU-DHL-5, 5 h) [M]	IC50 (SUDHL10 [6]; Homo sapiens, SU-DHL10, 5 h) [M]	IC50 (AMO-1; 72 h)	further results
CCOC(=O)c1c(CCCO)c2ccc(F)c3c2n1CCCCN(C)Cc1nn(C)c(CC)c1-3	–	–	–	–	–	–	–	–	–	–	ring closure, yield of all isomers ([1]; from CCOC(=O)c1c(CCCO[Si](C)(C)C(C)(C)C)c2ccc(F)c(-c3c(CBr)nn(C)c3CC)c2n1CCCCN(C)C(=O)OC(C)(C)C, acetonitrile, 44.5 mM, 60.0 °C, 6.0 h, 2 steps): 46%
CCOC(=O)c1c(CCCOc2cccc3ccccc23)c2ccc(F)c3c2n1CCCCNCc1nn(C)c(C)c1-3	–	–	–	–	–	–	–	–	–	–	ring closure, yield of all isomers ([1]; from CCOC(=O)c1c(CCCOc2cccc3ccccc23)c2ccc(F)c(-c3c(CBr)nn(C)c3C)c2n1CCCCN, DMF, 10.0 mM, 65.0 °C, 17.0 h): 48.6%
CCc1c2c(nn1C)COCCCCn1c(C(=O)O)c(CCCOc3cccc4ccccc34)c3ccc(F)c-2c31 (racemic) [Example 6, (rac)-3-ethyl-4-fluoro-2-methyl-7-[3-(naphthalen-1-yloxy)propyl]-2,10,11,12,13,15-hexahydro-pyrazolo[4′,3′:9,10][1,6]oxazacycloundecino[8,7,6-hi]indole-8-carboxylic acid]	1.1	9.8e-07	1100	14500	400	–	2630	6.4e-07	1.3e-06	–	IC50 (SK-BR-3): 7290 nM; IC50 (A2780; 72 h, listed as 06): 10600 nM and 13100 nM; IC50 (MV-4-11; Homo sapiens, MV4-11, 72 h): 3830 nM; IC50 (MV-4-11; 72 h, listed as 06): 2820 nM and 2760 nM and 2350 nM

Second part, led by results:

IC50 (MCL-1) [nM]	IC50 (SUDHL5 [2]; Homo sapiens, SU-DHL-5, 72 h) [M]	EC50 (SUDHL10 [4]; [8]) [nM]	IC50 (A2780; Homo sapiens, A2780, 72 h) [nM]	EC50 (SUDHL5 [5]) [nM]	IC50 (SUDHL10 [7]) [M]	Compound	IC50 (AMO-1; Homo sapiens, AMO1, 72 h) [nM]	IC50 (SUDHL5 [3]; Homo sapiens, SU-DHL-5, 5 h) [M]	IC50 (SUDHL10 [6]; Homo sapiens, SU-DHL10, 5 h) [M]	IC50 (AMO-1; 72 h)	further results
0.85	6.5e-07	800	4680	480	7.2e-07	Cc1c2c(nn1C)COCCCCn1c(C(=O)O)c(CCCOc3cccc4cc(F)ccc34)c3ccc(F)c-2c31 (racemic) [Example 12, (rac)-13-fluoro-1-(3-((6-fluoronaphthalen-1-yl)oxy)propyl)-11,12-dimethyl-4,5,6,7,9,11-hexahydropyrazolo[4′,3′:9,10][1]oxa[6]azacycloundecino[8,7,6-hi]indole-2-carboxylic acid]	1510	6e-07	8.2e-07	869 nM	–
0.86	7.3e-07	900	3470	350	6.3e-07	CCc1c2c(nn1C)COCCCCn1c(C(=O)O)c(CCCOc3cccc4cc(F)ccc34)c3ccc(F)c-2c31 (racemic) [Example 21, (rac)-12-ethyl-13-fluoro-1-(3-((6-fluoronaphthalen-1-yl)oxy)propyl)-11-methyl-4,5,6,7,9,11-hexahydropyrazolo[4′,3′:9,10][1]oxa[6]azacycloundecino[8,7,6-hi]indole-2-carboxylic acid]	1220	5.1e-07	8.5e-07	942 nM and 1120 nM	–
1.1	9.3e-07	2000	–	870	1e-06	CCc1nn(C)c2c1-c1c(F)ccc3c(CCCOc4cccc5cc(F)ccc45)c(C(=O)O)n(c13)CCCCOC2 (racemic) [Example 38, (rac)-12-ethyl-13-fluoro-1-(3-((6-fluoronaphthalen-1-yl)oxy)propyl)-10-methyl-4,5,6,7,9,10-hexahydropyrazolo[4′,3′:9,10][1]oxa[6]azacycloundecino[8,7,6-hi]indole-2-carboxylic acid]	2350	1e-06	1.4e-06	2460 nM and 1610 nM	–
13	–	–	–	–	–	CCc1c2c(nn1C)COCCCCn1c(C(=O)O)c(CCCOc3cccc4cc(F)ccc34)c3ccc(F)c-2c31 (single isomer, unassigned; enantiomer 2) [Example 25, 3-ethyl-4-fluoro-7-{3-[(6-fluoronaphthalen-1-yl)oxy]propyl}-2-methyl-2,10,11,12,13,15-hexahydropyrazolo[4′,3′:9,10][1,6]oxazacycloundecino[8,7,6-hi]indole-8-carboxylic acid (enantiomer 2)]	–	–	–	32800 nM	IC50 (SUDHL5 [2]; 72 h): 8.1e-06 M; IC50 (SUDHL5 [3]): 1.2e-05 M; EC50 (SUDHL10 [4]; 3 h, Caspase-Glo 3/7, median): > 33000 nM; IC50 (HMC-1-8): 20900 nM; IC50 (SUDHL10 [6]): 2.2e-05 M
